Measurements as given in paper PMC8864165, “Functional Effects of ARV-1502 Analogs Against Bacterial Hsp70 and Implications for Antimicrobial Activity” (Frontiers in Chemistry, 2022).
In brackets after ≈: the same amount, converted by molar mass. Square brackets hold non-standard residues; d marks the D form. Peptide text beside a SMILES is read from it. * marks the point of attachment. 5FAM = O=C1OC2(c3ccc(O)cc3Oc3cc(O)ccc32)c2ccc(C(=O)*)cc21; Ac6c = NC1(C(=O)O)CCCCC1

Assays:
E. coli DnaK [1] = molecular target: T1, E. coli DnaK (Escherichia coli, UniProt P0A6Y8); assay type: binding
T1 construct: His6-tag with TEV site ([…]) (N, cleaved yes); made in house; host or cells: E. coli (DE3) Rosetta pLysS
Protocol: The plate was incubated (90 min, 28°C, dark) and Cf-ARV-1502 (80 nmol/L; 10 µL/well) added. […] Each peptide was screened in duplicate. Control samples either lacked the unlabeled peptide (maximum) or contained Cf-ARV-1502 in buffer (minimum).
The quality of the experimental set up was evaluated by the Z′ factor ([Zhang et al., 1999]) (Supplementary Table S2). […] The obtained FP-values were normalized to the FP-values determined for lead sequence ARV-1502.

E. coli BW25113 = settings: 25% MHB2, 7.5 × 10^6 cfu/mL, 37°C, 20 h
Protocol: Minimal inhibitory concentrations (MICs) were determined using a liquid broth micro dilution assay in sterile 96-well plates (polystyrene F-bottom, Greiner Bio-One GmbH) and a total volume of 100 μL per well. […] Overnight cultures of bacteria, i.e., E. coli BW25113 or S. aureus DSM 6247, grown in 25% MHB2 were diluted 30-fold in 25% MHB2. After an incubation period of 4 h (37°C, 200 rpm), cells were diluted to 1.5 × 10^7 cfu/mL, based on a McFarland test, and 50 μL were added to each well (final concentration of 7.5 × 10^6 cfu/mL per well). The plates were incubated (37°C, 20 h) and the optical density was determined at 595 nm using the […]™ microplate reader. The MIC was defined as the lowest peptide concentration preventing visible bacterial growth.

E. coli JW0013 ∆dnaK = settings: 25% MHB2, 37°C, 20 h
S. aureus DnaK [2] = molecular target: T2, S. aureus DnaK (Staphylococcus aureus, UniProt P99110); experiment: Fluorescence polarization Kd with Cf-labeled peptide; assay type: binding
T2 construct: His6-tag with TEV site ([…]) (N, cleaved yes); made in house; host or cells: E. coli (DE3) Rosetta pLysS
Protocol: (§3) Dissociation (Kd) and inhibitory constants (Ki) were measured using a previously reported protocol with slight modifications ([Krizsan et al., 2015]; [Kolano et al., 2020]). Briefly, black 384-well plates (flat bottom, Greiner Bio-One GmbH, Frickenhausen, Germany) were blocked with 0.5% (w/v) casein in phosphate buffered saline (PBS; 10 mmol/L Na2HPO4, 0.2 mmol/L KH2PO4, 137 mmol/L NaCl, 2.7 mmol/L KCl, pH 7.4) containing 0.05% (w/v) Tween® 20 (PBST) at 4°C overnight and washed three times with PBST. […] The 5 (6)-carboxyfluorescein-labeled peptide was added (20 μL/well, 40 nmol/L), incubated (2 h, 28°C, dark), and the fluorescence polarization recorded at an excitation wavelength (λ ex) of 485 nm and an emission wavelength (λem) of 535 nm using a […] ™ microplate reader (Beckman Coulter, Krefeld, Germany). Ki values were determined using a twofold dilution series of unlabeled peptide (20 µL/well) and DnaK (10 µL/well). The plate was incubated at 28°C in the dark for 90 min before the Cf-labeled peptides were added (10 µL/well, 80 nmol/L). After a second incubation (90 min, 28°C), the fluorescence polarization was recorded (λ ex = 485 nm, λ em = 535 nm). Dissociation and inhibitory constants were calculated by fitting the data with a variable slope parameter [y = min + (max- min)/(1+(x/Kd) ^−Hill slope)] using SigmaPlot 13 (Systat Software Inc., San Jose, CA, United States).

S. aureus DnaK [3] = molecular target: T2, S. aureus DnaK; experiment: FP peptide binding screening against Cf-ARV-1502; settings: screening: DnaK 16 µmol/L, unlabeled peptide 35 µmol/L, duplicate, below 1 = better than ARV-1502
E. coli DnaK/DnaJ/GrpE = molecular target: T3, E. coli DnaK/DnaJ/GrpE (Escherichia coli, UniProt P0A6Y8); experiment: Fluorescence polarization Kd with Cf-labeled peptide, full chaperone system; assay type: binding; settings: ratio of Kd
T3 construct: made in house; host or cells: E. coli (DE3) Rosetta pLysS
Protocol: as §3

E. coli DnaJ = E. coli DnaJ (Escherichia coli, UniProt P08622); experiment: Fluorescence polarization Kd with Cf-labeled peptide; settings: E. coli proteins, ratio of Kd
Protocol: as §3

E. coli GrpE = E. coli GrpE (Escherichia coli, UniProt P09372); experiment: as above; settings: E. coli proteins, ratio of Kd
Protocol: as §3

S. aureus DnaJ = S. aureus DnaJ (Staphylococcus aureus, UniProt P63971); experiment: as above; settings: FP, * = upper plateau not reached, Kd only approximate
Protocol: as §3

E. coli DnaK [4] = molecular target: T1, E. coli DnaK; experiment: ATPase activity assay (malachite green), DnaK alone; assay type: biochemical; settings: ARV-1502 concentration series, plateau
Protocol: (§1) ATPase activity of E. coli and S. aureus chaperones was studied in the presence of an AMP using a 384-well plate colorimetric assay ([Chang et al., 2008]; [Zahn et al., 2013]). […] Each sample was prepared in triplicates on the same plate. The reaction was started by addition of ATP dissolved in assay buffer (5 µL, 4 mmol/L) and the plate centrifuged (500 × g, 2 min; Allegra™ 21R, Beckmann Coulter, Krefeld, Germany) before incubated (37°C, 2 h). The released phosphate was quantified using an external phosphate dilution series (10–200 µmol/L KH2PO4 in assay buffer) prepared on each plate and treated equally as the samples. The reaction was stopped by adding assay buffer (80 µL) to all samples except the phosphate dilution series. […] After 15 min, the absorbance was recorded at 620 nm on the […]™ microplate reader. […]
(§2) The impact of ARV-1502 and its analogs on the ATPase activity of DnaK was investigated in 384-well plates using the malachite green absorbance assay, which quantitates phosphate (Pi) cleaved from ATP confirming for example the ATPase activity of DnaK. The established assay allowed a robust and reproducible quantitation of phosphate from 10 to 150 µmol/L and was easy to handle (Supplementary Figure S3) providing the intended high-throughput screening. […]

S. aureus DnaK [5] = molecular target: T2, S. aureus DnaK; experiment: as above; assay type: biochemical; settings: ARV-1502 concentration series, plateau
Protocol: as §1, §2

T2 sequence (P99110 whole entry): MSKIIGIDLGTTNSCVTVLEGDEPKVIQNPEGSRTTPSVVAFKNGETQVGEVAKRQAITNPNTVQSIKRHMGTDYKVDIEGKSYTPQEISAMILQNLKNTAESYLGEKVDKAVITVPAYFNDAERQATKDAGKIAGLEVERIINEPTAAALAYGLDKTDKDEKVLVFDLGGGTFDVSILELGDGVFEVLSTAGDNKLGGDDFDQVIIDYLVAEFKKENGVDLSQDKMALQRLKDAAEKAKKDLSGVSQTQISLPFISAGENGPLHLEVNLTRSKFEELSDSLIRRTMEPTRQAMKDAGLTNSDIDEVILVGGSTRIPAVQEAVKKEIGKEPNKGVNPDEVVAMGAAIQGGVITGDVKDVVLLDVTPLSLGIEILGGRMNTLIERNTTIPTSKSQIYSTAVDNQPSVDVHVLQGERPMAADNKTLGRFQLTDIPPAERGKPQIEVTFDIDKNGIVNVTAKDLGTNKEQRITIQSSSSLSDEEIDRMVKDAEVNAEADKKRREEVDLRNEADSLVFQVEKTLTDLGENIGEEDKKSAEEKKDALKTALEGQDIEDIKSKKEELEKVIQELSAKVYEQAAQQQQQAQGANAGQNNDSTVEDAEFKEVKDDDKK
T1 sequence (P0A6Y8 whole entry): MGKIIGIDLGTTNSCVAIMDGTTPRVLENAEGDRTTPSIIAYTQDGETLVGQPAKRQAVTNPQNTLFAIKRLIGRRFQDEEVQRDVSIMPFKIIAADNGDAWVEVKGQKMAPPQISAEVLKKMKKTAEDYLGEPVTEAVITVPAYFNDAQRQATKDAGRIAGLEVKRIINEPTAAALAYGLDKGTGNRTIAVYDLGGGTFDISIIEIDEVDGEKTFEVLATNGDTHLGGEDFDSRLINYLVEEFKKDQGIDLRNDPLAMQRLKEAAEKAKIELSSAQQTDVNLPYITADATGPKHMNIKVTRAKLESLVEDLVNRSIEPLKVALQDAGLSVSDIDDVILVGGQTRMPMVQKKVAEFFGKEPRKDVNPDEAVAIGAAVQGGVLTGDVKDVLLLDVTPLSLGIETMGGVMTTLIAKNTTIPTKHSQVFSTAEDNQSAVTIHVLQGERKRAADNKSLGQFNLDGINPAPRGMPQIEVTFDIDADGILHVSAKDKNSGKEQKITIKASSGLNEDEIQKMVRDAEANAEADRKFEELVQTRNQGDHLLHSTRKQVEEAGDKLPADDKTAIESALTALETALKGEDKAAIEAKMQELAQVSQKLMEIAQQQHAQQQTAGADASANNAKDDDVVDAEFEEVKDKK
Sequence of E. coli GrpE (P09372 whole entry): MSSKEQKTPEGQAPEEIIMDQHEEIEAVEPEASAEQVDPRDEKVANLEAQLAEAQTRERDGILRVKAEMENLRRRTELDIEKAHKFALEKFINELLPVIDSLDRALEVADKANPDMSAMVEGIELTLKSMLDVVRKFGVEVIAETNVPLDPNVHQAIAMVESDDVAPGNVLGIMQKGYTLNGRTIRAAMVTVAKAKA
Sequence of S. aureus DnaJ (P63971 whole entry): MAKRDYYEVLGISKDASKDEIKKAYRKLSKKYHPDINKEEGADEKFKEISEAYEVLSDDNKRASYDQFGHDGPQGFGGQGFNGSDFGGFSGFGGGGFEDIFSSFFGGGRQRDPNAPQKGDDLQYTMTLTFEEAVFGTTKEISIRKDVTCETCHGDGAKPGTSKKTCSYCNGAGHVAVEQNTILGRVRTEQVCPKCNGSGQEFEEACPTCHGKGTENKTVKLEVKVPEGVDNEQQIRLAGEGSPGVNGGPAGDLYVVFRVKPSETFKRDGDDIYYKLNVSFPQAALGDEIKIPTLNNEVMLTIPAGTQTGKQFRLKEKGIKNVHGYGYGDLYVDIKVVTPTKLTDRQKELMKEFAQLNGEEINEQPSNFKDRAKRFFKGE
Sequence of E. coli DnaJ (P08622 whole entry): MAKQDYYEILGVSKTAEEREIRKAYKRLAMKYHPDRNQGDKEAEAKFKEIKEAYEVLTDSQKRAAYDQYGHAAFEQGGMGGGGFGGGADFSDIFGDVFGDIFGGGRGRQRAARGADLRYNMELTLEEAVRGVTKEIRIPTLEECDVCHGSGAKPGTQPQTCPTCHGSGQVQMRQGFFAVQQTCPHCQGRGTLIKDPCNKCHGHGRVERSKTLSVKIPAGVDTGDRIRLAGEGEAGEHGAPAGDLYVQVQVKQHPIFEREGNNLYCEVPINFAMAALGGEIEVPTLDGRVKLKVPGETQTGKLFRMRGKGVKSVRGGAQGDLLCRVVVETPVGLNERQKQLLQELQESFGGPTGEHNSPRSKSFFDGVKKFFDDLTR
T3 sequence (P0A6Y8 whole entry): as the sequence (P0A6Y8 whole entry) above

With `CC(C)C[C@H](NC(=O)[C@H](Cc1ccc(O)cc1)NC(=O)[C@@H]1CCCN1C(=O)[C@H](CCCNC(=N)N)NC(=O)[C@@H]1CCCN1C(=O)[C@H](CCCCN)NC(=O)[C@H](CCCCN)NC(=O)[C@@H]1CCCN1C(=O)[C@H](CCCNC(=N)N)NC(=O)C1(N)CCCCC1)C(=O)N1CCC[C@H]1C(=O)N[C@@H](CC(C)C)C(=O)N1CCC[C@H]1C(=O)N[C@@H](CCCNC(=N)N)C(=O)N1CCC[C@H]1C(=O)N1CCC[C@H]1C(=O)N[C@@H](CCCNC(=N)N)C(=O)N1CCC[C@H]1C(=O)N[C@H](C(=O)N[C@@H](CCCNC(=N)N)C(N)=O)C(C)C` [compound 45] (H-[Ac6c]RPKKPRPYLPLPRPPRPVR-NH2) the “DnaK binding in the screening, in words” value (E. coli DnaK [1]; FP screening, DnaK variant not stated at the place) was “best binding”, the “MIC, E. coli BW25113” value (E. coli BW25113) was >128 µg/mL and the “MIC, E. coli JW0013 ∆dnaK” value (E. coli JW0013 ∆dnaK) was >128 µg/mL.
In the case of `CC(C)C[C@H](NC(=O)[C@H](Cc1ccc(O)cc1)NC(=O)[C@@H]1CCCN1C(=O)[C@H](CCCNC(=N)N)NC(=O)[C@@H]1CCCN1C(=O)[C@H](Cc1ccccc1)NC(=O)[C@H](Cc1ccccc1)NC(=O)[C@@H]1CCCN1C(=O)[C@H](CCCNC(=N)N)NC(=O)C1(N)CCCCC1)C(=O)N1CCC[C@H]1C(=O)N[C@@H](CC(C)C)C(=O)N1CCC[C@H]1C(=O)N[C@@H](CCCNC(=N)N)C(=O)N1CCC[C@H]1C(=O)N1CCC[C@H]1C(=O)N[C@@H](CCCNC(=N)N)C(=O)N1CCC[C@H]1C(=O)N[C@H](C(=O)N[C@@H](CCCNC(=N)N)C(N)=O)C(C)C` [peptide 102] (H-[Ac6c]RPFFPRPYLPLPRPPRPVR-NH2), the “fold lower Kd than lead structure ARV-1502, S. aureus DnaK” value (S. aureus DnaK [2]; ratio of Kd of Cf-labeled peptides) is reported as 20 fold, the “binding to E. coli DnaK, FP-value normalized to ARV-1502” value (E. coli DnaK [1]) is reported as “best binders” and the “binding to S. aureus DnaK, FP-value normalized to ARV-1502” value (S. aureus DnaK [3]) is reported as “best binders”. For the same molecule, the “MIC, E. coli JW0013 ∆dnaK” value (E. coli JW0013 ∆dnaK) was 32 µg/mL (≈ 12.9 µM).
`CC(C)C[C@H](NC(=O)[C@H](Cc1ccc(O)cc1)NC(=O)[C@@H]1CCCN1C(=O)[C@H](CCCNC(=N)N)NC(=O)[C@@H]1CCCN1C(=O)[C@H](CCCCN)NC(=O)[C@H](CC(=O)O)NC(=O)[C@@H]1CCCN1C(=O)[C@H](CCCNC(=N)N)NC(=O)C1(NC(=O)c2ccc3c(c2)C(=O)OC32c3ccc(O)cc3Oc3cc(O)ccc32)CCCCC1)C(=O)N1CCC[C@H]1C(=O)N[C@@H](CCCNC(=N)N)C(=O)N1CCC[C@H]1C(=O)N[C@@H](CCCNC(=N)N)C(=O)N1CCC[C@H]1C(=O)N1CCC[C@H]1C(=O)N[C@@H](CCCNC(=N)N)C(=O)N1CCC[C@H]1C(=O)N[C@H](C(=O)N[C@@H](CCCNC(=N)N)C(N)=O)C(C)C` [Cf-ARV-1502] (5FAM-[Ac6c]RPDKPRPYLPRPRPPRPVR-NH2) was tested, and the “fold higher Kd for E. coli DnaK/DnaJ/GrpE-system than for DnaK alone” value (E. coli DnaK/DnaJ/GrpE) was 15 fold, the “times weaker binding to S. aureus DnaK than to E. coli DnaK” value (S. aureus DnaK [2]; ratio of Kd) was “around 100 times” and the “fold weaker binding to DnaJ than to DnaK” value (E. coli DnaJ) was ~150 fold. For the same molecule, the “fold weaker binding to GrpE than to DnaK” value (E. coli GrpE) was ~1,000 fold and the “Kd, S. aureus DnaJ” value (S. aureus DnaJ) was “no fit”.
`CC(C)C[C@H](NC(=O)[C@H](Cc1ccc(O)cc1)NC(=O)[C@@H]1CCCN1C(=O)[C@H](CCCNC(=N)N)NC(=O)[C@@H]1CCCN1C(=O)[C@H](CCCCN)NC(=O)[C@H](CC(=O)O)NC(=O)[C@@H]1CCCN1C(=O)[C@H](CCCNC(=N)N)NC(=O)C1(N)CCCCC1)C(=O)N1CCC[C@H]1C(=O)N[C@@H](CCCNC(=N)N)C(=O)N1CCC[C@H]1C(=O)N[C@@H](CCCNC(=N)N)C(=O)N1CCC[C@H]1C(=O)N1CCC[C@H]1C(=O)N[C@@H](CCCNC(=N)N)C(=O)N1CCC[C@H]1C(=O)N[C@H](C(=O)N[C@@H](CCCNC(=N)N)C(N)=O)C(C)C` [ARV-1502] (H-[Ac6c]RPDKPRPYLPRPRPPRPVR-NH2) was tested, and the “increase of intrinsic ATPase activity of E. coli DnaK” value (E. coli DnaK [4]) was ~250%, the “stimulation of intrinsic ATPase activity of S. aureus DnaK” value (S. aureus DnaK [5]) was 50% and the “MIC, E. coli JW0013 ∆dnaK” value (E. coli JW0013 ∆dnaK) was 4 to 8 µg/mL.
